ChEMBL document CHEMBL1201862, “PubChem BioAssay data set” (2004)
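Five concentrations, 48 hours, 96-well plates. GI50: concentration for 50% inhibition of growth.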 Active and inactive are the calls of the source. No stated cut-off is given here; in the data, active = GI50 up to about 1.1 µM and inactive = higher.

Columns and labels:
Experiment in all cases: NCI tumour cell line growth inhibition, 48 h
DU-145 = test system: DU-145
CAKI-1 = test system: CAKI-1
MCF7 = test system: MCF7
MDA-N = test system: MDA-N
IGROV-1 = test system: IGROV-1
UACC-62 = test system: UACC-62
SF-268 = test system: SF-268
MDA-MB-435 = test system: MDA-MB-435
OVCAR-8 = test system: OVCAR-8
T47D = test system: T47D
HCT-15 = test system: HCT-15
SNB-75 = test system: SNB-75
UACC-257 = test system: UACC-257
U-251 = test system: U-251
EKVX = test system: EKVX
TK-10 = test system: TK-10
HL-60 = test system: HL-60
MOLT-4 = test system: MOLT-4
SK-MEL-28 = test system: SK-MEL-28
OVCAR-5 = test system: OVCAR-5

C=CCOc1ccc(C(/N=N\c2ccc(Cl)cc2)=N/NC(=O)c2ccccc2)cc1OC
GI50 (DU-145): > 100 µM (inactive) | GI50 (CAKI-1): > 100 µM (inactive) | GI50 (MCF7): > 100 µM (inactive) | GI50 (MDA-N): 35 µM (inactive) | GI50 (IGROV-1): 43.8 µM (inactive) | GI50 (UACC-62): 23.8 µM (inactive) | GI50 (SF-268): > 100 µM (inactive) | GI50 (MDA-MB-435): 34.7 µM (inactive) | GI50 (OVCAR-8): 37.5 µM (inactive) | GI50 (T47D): 22 µM (inactive) | GI50 (HCT-15): 80.7 µM | GI50 (SNB-75): 60.3 µM (inactive) | GI50 (UACC-257): 41.8 µM (inactive) | GI50 (U-251): 57.3 µM (inactive) | GI50 (EKVX): > 100 µM (inactive) | GI50 (TK-10): > 100 µM (inactive) | GI50 (HL-60): 33.8 µM (inactive) | GI50 (MOLT-4): 32.1 µM (inactive) | GI50 (SK-MEL-28): 19 µM (inactive) | GI50 (OVCAR-5): > 100 µM (inactive)

O=C(CCSC1=NCCCN1)c1ccc(F)cc1
GI50 (DU-145): 17.4 µM (inactive) | GI50 (CAKI-1): 17.2 µM (inactive) | GI50 (MCF7): 4.41 µM (inactive) | GI50 (MDA-N): 17.3 µM (inactive) | GI50 (IGROV-1): 18 µM (inactive) | GI50 (UACC-62): 17.2 µM (inactive) | GI50 (SF-268): 22.9 µM (inactive) | GI50 (MDA-MB-435): 18.5 µM (inactive) | GI50 (OVCAR-8): 31.9 µM (inactive) | GI50 (T47D): 21.9 µM (inactive) | GI50 (HCT-15): 13.1 µM | GI50 (SNB-75): 19 µM (inactive) | GI50 (UACC-257): 18.8 µM (inactive) | GI50 (U-251): 17.5 µM (inactive) | GI50 (EKVX): 12.7 µM (inactive) | GI50 (TK-10): 15.8 µM (inactive) | GI50 (HL-60): 10.7 µM (inactive) | GI50 (MOLT-4): 2.62 µM (inactive) | GI50 (SK-MEL-28): 18.7 µM (inactive) | GI50 (OVCAR-5): 15 µM (inactive)

N#Cc1c(O)c(/N=N/c2ccc(Cl)cc2)c(=O)n2c1[nH]c1ccccc12
GI50 (DU-145): 38.5 µM (inactive) | GI50 (CAKI-1): 78.3 µM (inactive) | GI50 (MCF7): 43.5 µM (inactive) | GI50 (MDA-N): 38.7 µM (inactive) | GI50 (IGROV-1): 73.1 µM (inactive) | GI50 (UACC-62): 29.7 µM (inactive) | GI50 (SF-268): 45 µM (inactive) | GI50 (MDA-MB-435): 35.8 µM (inactive) | GI50 (OVCAR-8): 37.8 µM (inactive) | GI50 (T47D): 27.1 µM (inactive) | GI50 (HCT-15): 28.1 µM | GI50 (SNB-75): 37.7 µM (inactive) | GI50 (UACC-257): 52.1 µM (inactive) | GI50 (U-251): 37.5 µM (inactive) | GI50 (EKVX): > 100 µM (inactive) | GI50 (TK-10): 54 µM (inactive) | GI50 (HL-60): 55.5 µM (inactive) | GI50 (MOLT-4): 29.6 µM (inactive) | GI50 (SK-MEL-28): 45.2 µM (inactive) | GI50 (OVCAR-5): 62.2 µM (inactive)

O=Cc1c2c(cc3c1CC1(C3)Cc3cc4c(c(C=O)c3C1)CCCC4)CCCC2
GI50 (DU-145): 85.3 µM (inactive) | GI50 (CAKI-1): 46.5 µM (inactive) | GI50 (MCF7): > 31.6 µM (inactive) | GI50 (MDA-N): > 31.6 µM (inactive) | GI50 (IGROV-1): 23 µM (inactive) | GI50 (UACC-62): > 31.6 µM (inactive) | GI50 (SF-268): > 100 µM (inactive) | GI50 (MDA-MB-435): > 31.6 µM (inactive) | GI50 (OVCAR-8): 23.5 µM (inactive) | GI50 (T47D): > 31.6 µM (inactive) | GI50 (HCT-15): 19.2 µM | GI50 (SNB-75): > 100 µM (inactive) | GI50 (UACC-257): > 31.6 µM (inactive) | GI50 (U-251): > 31.6 µM (inactive) | GI50 (EKVX): 23.9 µM (inactive) | GI50 (TK-10): > 31.6 µM (inactive) | GI50 (HL-60): 56.1 µM (inactive) | GI50 (MOLT-4): 13.3 µM (inactive) | GI50 (SK-MEL-28): > 100 µM (inactive) | GI50 (OVCAR-5): > 31.6 µM (inactive)

O=C(Nc1ccc(Cl)cc1)c1cc(S(=O)(=O)NC2=Nc3ccc(Cl)cc3C(c3ccccc3)N2)c(SSc2cc(Cl)c(C(=O)Nc3ccc(Cl)cc3)cc2S(=O)(=O)NC2=Nc3ccc(Cl)cc3C(c3ccccc3)N2)cc1Cl (stereo not given)
GI50 (DU-145): > 100 µM (inactive) | GI50 (CAKI-1): > 100 µM (inactive) | GI50 (MCF7): > 100 µM (inactive) | GI50 (MDA-N): > 100 µM (inactive) | GI50 (IGROV-1): > 100 µM (inactive) | GI50 (UACC-62): > 90.4 µM (inactive) | GI50 (SF-268): > 100 µM (inactive) | GI50 (MDA-MB-435): > 100 µM (inactive) | GI50 (OVCAR-8): > 100 µM (inactive) | GI50 (T47D): > 100 µM (inactive) | GI50 (HCT-15): > 100 µM | GI50 (SNB-75): > 100 µM (inactive) | GI50 (UACC-257): > 100 µM (inactive) | GI50 (U-251): > 100 µM (inactive) | GI50 (EKVX): > 100 µM (inactive) | GI50 (TK-10): > 100 µM (inactive) | GI50 (HL-60): 3.37 µM (inactive) | GI50 (MOLT-4): 25.9 µM (inactive) | GI50 (SK-MEL-28): > 100 µM (inactive) | GI50 (OVCAR-5): 83.4 µM (inactive)

COc1ccc(/C=C/C(=O)c2ccc(Br)cc2)cc1
GI50 (DU-145): > 100 µM (inactive) | GI50 (CAKI-1): > 100 µM (inactive) | GI50 (MCF7): 85.7 µM (inactive) | GI50 (MDA-N): > 100 µM (inactive) | GI50 (IGROV-1): > 100 µM (inactive) | GI50 (UACC-62): > 100 µM (inactive) | GI50 (SF-268): > 100 µM (inactive) | GI50 (MDA-MB-435): > 100 µM (inactive) | GI50 (OVCAR-8): > 100 µM (inactive) | GI50 (T47D): 42.4 µM (inactive) | GI50 (HCT-15): > 100 µM | GI50 (SNB-75): 93.5 µM (inactive) | GI50 (UACC-257): > 10 µM (inactive) | GI50 (U-251): > 100 µM (inactive) | GI50 (EKVX): > 100 µM (inactive) | GI50 (TK-10): > 100 µM (inactive) | GI50 (HL-60): 66.8 µM (inactive) | GI50 (MOLT-4): 59.3 µM (inactive) | GI50 (SK-MEL-28): > 100 µM (inactive) | GI50 (OVCAR-5): 18.4 µM (inactive)
